This is an account of results in patent publication US4325954A, “Pyrrolopyrimidinones and pyrroloimidazolones and their compositions and therapeutic methods” (Laboratoires Jacques Logeais, priority 1979, dated 1982).

Read-outs that look alike come from different tables or passages of the source. Where only a bound is given, the exact number is not on record here.

A short description of data set [1]: Acute toxicity in mice (oral or intraperitoneal single dose). As to conditions: mouse, in vivo, observed at least one week. Here is the method:
Each compound was administered orally or intraperitoneally as a single dose.

The test system of data set [2] is palpebral ptosis induced by a reserpine injection. Nature of the data set: Antidepressant activity: antagonism of palpebral ptosis induced by reserpine injection. In kind it is in vivo. The settings on record: Mus musculus; mice, oral, one hour prior to reserpine 2 mg/kg ip; recorded hourly for 3 hours (Rubin's scale); read-out: ptosis reserpine ED50 (dosage which inhibits palpebral ptosis by 50%). Here is the method:
The antidepressant activity of each compound was evaluated in mice from its ability to antagonize palpebral ptosis induced by a reserpine injection. The different materials were administered orally, as a preventive treatment, one hour prior to intraperitoneal injection of reserpine (2 mg/kg). The intensity of the palpebral ptosis was then recorded at hourly intervals, for a period of time of 3 hours, according to a semi-quantitative scale (Rubin's scale). The test materials were administered at several dosage levels and, for most of them, the 50% efficient dosage (ED50) which inhibits palpebral ptosis by a factor of 50% could be evaluated.

Data set [3] deals with cardiovascular system. Nature of the data set: Effects on the cardiovascular system in dogs. In kind it is in vivo. The settings on record: intravenous, 0.1 mg/kg to 10 mg/kg. The protocol: The compounds of the formula (I) were administered intravenously in dogs, at dosages from 0.1 mg/kg to 10 mg/kg. The changes of blood pressure, of the femoral arterial rate, of vascular resistance subsequent to said injections were recorded.

Data set [4] relates to peripheral and central cholinergic effects of oxotremorine. Nature of the data set: Atropine activity: effect on peripheral and central cholinergic effects of oxotremorine. The data set is classed as in vivo. As to conditions: 100 mg/kg oral, 60 minutes prior to subcutaneous oxotremorine 2 mg/kg. The protocol:
In view of the detrimental atropine-like side-effect of the conventional antidepressants, this potential property was systematically investigated in the compounds of the formula (I).
The different materials were administered orally 60 minutes prior to subcutaneous oxotremorine injection at a dosage of 2 mg/kg.
15 minutes, and then 30 and 45 minutes after injection of the cholinergic agent, the various symptoms reflecting a parasympathetic stimulation were evaluated according to a semi-quantitative arbitrary scale (from 0 to 4).
peripheral cholinergic stimulation symptoms: tearfulness, salivation;
central cholinergic stimulation: trembling, Straub's phenomenon.

[5] abbreviates: ip, intraperitoneal, read-out: LD50 ip.

Broadly, the LD50 is the dose at which mortality reaches 50%. Usually ED50 stands for the dose that gives a 50% effect, or the effect in half of the subjects. With `O=C1CCN=C2CCC(c3ccccc3)N12` (stereo not shown) [Example 17], the LD50 was more than 200 mg/kg in data set [1] (setting [5]) and more than 200 mg/kg in data set [1] (oral, read-out: LD50 po). The ED50 in data set [2] was less than 100 mg/kg.
Consider `CCOC(=O)CC1N=C2CC(c3ccccc3)CN2C1=O` (stereo not shown) [Example 6], for which the “action on the blood pressure” value in data set [3] was “slight hypotensive action”. Further, the LD50 in data set [1] (setting [5]) was more than 200 mg/kg; in data set [1] (oral, read-out: LD50 po), more than 200 mg/kg. Further, the ED50 in data set [2] was approximately 100 mg/kg.
On to `CC1N=C2CC(c3ccccc3)CN2C1=O` (racemic) [Example 1], for which the LD50 in data set [1] (setting [5]) is more than 200 mg/kg; in data set [1] (oral, read-out: LD50 po) it was more than 200 mg/kg. The ED50 in data set [2] was approximately 33 mg/kg.
In the case of `O=C1CCN=C2CC(c3ccccc3)CN12` (stereo not shown) [Example 14], the LD50 in data set [1] (setting [5]) was more than 200 mg/kg; in data set [1] (oral, read-out: LD50 po), more than 200 mg/kg. Moreover, the ED50 in data set [2] is 5 mg/kg.
For `O=C1C(c2ccccc2)N=C2CC(c3ccccc3)CN12` (racemic) [Example 3], the LD50 in data set [1] (setting [5]) was more than 200 mg/kg; in data set [1] (oral, read-out: LD50 po), more than 200 mg/kg. The ED50 in data set [2] is approximately 30 mg/kg.
For `CCOC(=O)C1N=C2CC(c3ccccc3)CN2C1=O` (stereo not shown) [Example 5], the vasoconstrictive action entry in data set [3] was “slightly vasoconstrictive”. For the same compound, the LD50 in data set [1] (setting [5]) is more than 200 mg/kg; in data set [1] (oral, read-out: LD50 po) it was more than 200 mg/kg. Moreover, the ED50 in data set [2] is approximately 7 mg/kg.
Turning to `CCOC(=O)C1N=C2CCC(c3ccccc3)CN2C1=O` (stereo not shown) [Example 12], the LD50 in data set [1] (setting [5]) is more than 200 mg/kg; in data set [1] (oral, read-out: LD50 po), more than 200 mg/kg. Moreover, the ED50 in data set [2] is approximately 30 mg/kg.
With `CC(C)C1N=C2CC(c3ccccc3)CN2C1=O` (racemic) [Example 2], the LD50 in data set [1] (setting [5]) is more than 200 mg/kg; in data set [1] (oral, read-out: LD50 po) it was more than 200 mg/kg. The ED50 in data set [2] is more than 30 mg/kg.
Take `CCOC(=O)CCC1N=C2CC(c3ccccc3)CN2C1=O` (stereo not shown) [Example 7]: the LD50 in data set [1] (setting [5]) is more than 200 mg/kg; in data set [1] (oral, read-out: LD50 po) it was more than 200 mg/kg. The ED50 in data set [2] is approximately 30 mg/kg.
Consider `CCOC(=O)CCC1N=C2CCC(c3ccccc3)CN2C1=O` (stereo not shown) [Example 13], for which the LD50 in data set [1] (setting [5]) is more than 200 mg/kg; in data set [1] (oral, read-out: LD50 po) it was more than 200 mg/kg. In addition, in data set [2], the ED50 was approximately 30 mg/kg.
Take `CC(C)C1N=C2CCC(c3ccccc3)CN2C1=O` (racemic) [Example 10]: in data set [4], the “inhibitor activity on cholinergic effects of oxotremorine” value is listed as “slight inhibitor activity”. Besides, the LD50 in data set [1] (setting [5]) is more than 200 mg/kg; in data set [1] (oral, read-out: LD50 po), more than 200 mg/kg. Further, the ED50 in data set [2] is approximately 100 mg/kg.
Take `O=C1CCCN=C2CC(c3ccccc3)CN12` (stereo not shown) [Example 18]: the LD50 in data set [1] (setting [5]) is more than 200 mg/kg; in data set [1] (oral, read-out: LD50 po) it was more than 200 mg/kg. The ED50 in data set [2] is less than 33 mg/kg.
For `CSCCC1N=C2CC(c3ccccc3)CN2C1=O` (stereo not shown) [Example 8], the “action on the blood pressure” value in data set [3] was “slight hypotensive action”. Also, the LD50 is more than 200 mg/kg in data set [1] (setting [5]) and more than 200 mg/kg in data set [1] (oral, read-out: LD50 po). The ED50 in data set [2] is approximately 30 mg/kg.
Take `O=C1CCN=C2CC(c3cc4ccccc4o3)CN12` (stereo not shown) [Example 15]: the LD50 in data set [1] (setting [5]) was more than 200 mg/kg; in data set [1] (oral, read-out: LD50 po), more than 200 mg/kg. Also, the ED50 in data set [2] is approximately 33 mg/kg.
Turning to `O=C1C(Cc2ccccc2)N=C2CC(c3ccccc3)CN12` (stereo not shown) [Example 4], the LD50 in data set [1] (setting [5]) was less than 200 mg/kg; in data set [1] (oral, read-out: LD50 po), more than 200 mg/kg. The ED50 in data set [2] was less than 30 mg/kg.
